Assay results: patent US10253002B2, “Compounds and methods of treating infections” (Neoculi Pty Ltd., priority 2013, dated 2019)
Converted amounts (≈) assume the structure as drawn. “And” between values parts separate entries of the source, which are not always exact repeats. Equal entries are not always repeated.

Tests used:
S. pneumoniae isolates [1] = assay: Disk diffusion susceptibility (CLSI/EUCAST), Example 5; format: cell-based, Streptococcus pneumoniae
Summary of the method: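 Susceptibility to 12 antimicrobials was categorised (S/I/R) using CLSI breakpoints from zones of complete inhibition, read thrice to the nearest millimetre with the mode taken. Incubation was 16–24 h, 37 °C, 5% CO2.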

[2] = tested on: Staphylococcus pseudintermedius isolates (MSSP and MRSP); assay: Disk diffusion and Epsilometer susceptibility testing, Example 6; format: cell-based; conditions: 13 MRSP isolates
[3] = tested on: Staphylococcus aureus T3-129 / Staphylococcus spp. MK1; assay: Synergy studies, checkerboard method (FIC index); format: cell-based; conditions: S. aureus strain T3-29; for FICI: FIC index of antibiotic with NCL812; for Result (interaction with NCL812): antibiotic with NCL812
[4] = tested on: S. aureus isolates (HA-MRSA, CA-MRSA, methicillin-susceptible staphylococci); assay: Kirby-Bauer disc diffusion resistotyping, Example 4; format: cell-based, Staphylococcus aureus; conditions: for Total isolates resistant (Kirby-Bauer disc diffusion): all isolates (n = 30)
Experimental: Antibiotic-susceptibility profiling of the isolate collection was undertaken using Kirby-Bauer disc diffusion, as recommended by the Clinical and Laboratory Standards Institute (CLSI) on Mueller-Hinton agar. Isolates were grown overnight on SBA at 37° C. Colonies were suspended in physiological saline. Turbidity was adjusted to a 0.5 McFarland standard and suspensions were spread over the medium. Antibiotic discs according to Table 9 below were transferred onto the inoculated medium and analysed after 24 h incubation at 37° C.

S. pneumoniae isolates [5] = assay: Micro-broth dilution MIC, Example 5; format: cell-based, Streptococcus pneumoniae; conditions: Streptococcus pneumoniae, isolate D39; Table 28
Experimental: For all in vitro assays, fresh pneumococcal isolates were grown overnight (O/N) on horse blood agar (HBA) plates (39 g/L Columbia blood agar base [Oxoid] 5% [v/v] defribinated horse blood [Oxoid] at 37° C. with 5% supplemented CO2). Mueller-Hinton blood agar with 5% defibrinated sheep blood (MHSBA Roseworthy Media and Blood Service) was used for disk diffusion analysis as directed by Clinical Laboratory Standards Institute (CLSI) standards. Pneumococci were routinely grown in broth consisting of 4% lysed horse blood (LHB) with Cation Adjusted Mueller Hinton Broth (CAHMB, [Difco]) at 37° C. with 5% supplemented CO2. […] Isolates were stored in HSB at −80° C.
(§1) [Micro-broth dilutions and 96 well trays are prepared by the following method: 90 μL of 4% LHB:CAMHB is aliquotted into all wells using a multichannel pipette. 90 μL of working antimicrobial stocks were no serial diluted down the tray by a 1:2 dilution. Negative broth controls and dilution control were taken into account when planning the set up of a 96 well tray.] 10 μL of bacterial suspension was then added to the appropriate wells in the 96 well tray. Appropriate positive (no antimicrobial), negative (no antimicrobial or bacteria) and negative dilution (a serial dilution control of antimicrobial and broth) controls were included in each assay. […] The MBC was determined by a 99.95% inhibition of S. pneumoniae, taking into account the dilution factor. MICs and MBCs were determined in quadruplicate and the mode was taken as the representative value. The MIC50, MIC90 and MIC range and MBC50, MBC90 and MBC range were determined according to CLSI standards. The MIC50 and MIC90, or MBC50 and MBC90, are defined by the lowest concentrations which, when all the MICs and MBCs of the isolates are arranged from lowest to highest, inhibited the 50th and 90th percentile of the total amount of isolates, respectively.

S. pneumoniae isolates [6] = assay: MBC, Example 5; format: cell-based, Streptococcus pneumoniae; conditions: Streptococcus pneumoniae, isolate D39; Table 28; read-out: MBC
Experimental: as §1

Escherichia coli = assay: Broth microdilution MIC, Example 7 (NCL812 and analogues); format: cell-based; conditions: E. coli ATCC25922, 24 hours
Pseudomonas aeruginosa = assay: as above; format: cell-based; conditions: Pseudomonas #008, 24 hours
S. aureus ATCC29213 = assay: Broth microdilution MIC, Example 7 (NCL analogues), Table 42; format: cell-based, Staphylococcus aureus; conditions: S. aureus ATCC29213, 24 hours
E. faecalis #32 = assay: as above; format: cell-based, Enterococcus faecalis; conditions: E. faecalis #32, 24 hours

Row | MIC (μg/ml) at 24 hours E. coli ATCC25922 (Escherichia coli) [µg/mL] | MIC (μg/ml) at 24 hours Pseudomonas #008 (Pseudomonas aeruginosa) [µg/mL] | MIC (μg/ml) at 24 hours S. aureus ATCC29213 (S. aureus ATCC29213) [µg/mL] | MIC (μg/ml) at 24 hours E. faecalis #32 (E. faecalis #32) [µg/mL] | SMILES | disk diffusion zone diameter (S. pneumoniae isolates [1]; A66.1) [mm] | disk diffusion zone diameter (S. pneumoniae isolates [1]; D39) [mm] | disk diffusion zone diameter (S. pneumoniae isolates [1]; EF3030) [mm] | disk diffusion zone diameter (S. pneumoniae isolates [1]; L82016) [mm] | disk diffusion zone diameter (S. pneumoniae isolates [1]; P9) [mm] | disk diffusion zone diameter (S. pneumoniae isolates [1]; P21) [mm] | disk diffusion zone diameter (S. pneumoniae isolates [1]; TIGR4) [mm] | disk diffusion zone diameter (S. pneumoniae isolates [1]; WCH16) [mm] | disk diffusion zone diameter (S. pneumoniae isolates [1]; WCH43) [mm] | disk diffusion zone diameter (S. pneumoniae isolates [1]; WCH46) [mm] | disk diffusion zone diameter (S. pneumoniae isolates [1]; WCH57) [mm] | disk diffusion zone diameter (S. pneumoniae isolates [1]; WCH77) [mm] | disk diffusion zone diameter (S. pneumoniae isolates [1]; WCH86) [mm] | disk diffusion zone diameter (S. pneumoniae isolates [1]; WCH89) [mm] | disk diffusion zone diameter (S. pneumoniae isolates [1]; WCH92) [mm] | disk diffusion zone diameter (S. pneumoniae isolates [1]; WCH137) [mm] | further results
1 |  |  |  |  | O=C(N[C@H](CO)[C@H](O)c1ccc([N+](=O)[O-])cc1)C(Cl)Cl [Chloramphenicol] | 34 | 31 | 29 | 26 | 31 | 35 | 32 | 11 | 26 | 28 | 40 | 36 | 34 | 32 | 32 | 31 | disk diffusion susceptibility category (S. pneumoniae isolates [1]; WCH16 (Table 18)): R; disk diffusion zone diameter (S. pneumoniae isolates [1]; WCH158): 34 mm; disk diffusion zone diameter (S. pneumoniae isolates [1]; WCH184): 29 mm; disk diffusion zone diameter (S. pneumoniae isolates [1]; WCH211): 32 mm; disk diffusion zone diameter (S. pneumoniae isolates [1]; WU2): 30 mm; MRSP isolates susceptible [2]: 23%; FICI [3]: 0.75 and 0.562; Antibiotic MIC Alone [3]: 8 µg/mL and 4 µg/mL; Result (interaction with NCL812) [3]: NE (No effect (NE) was defined as 0.5<FICI<4)
2 |  |  |  |  | CC[C@H]1OC(=O)[C@H](C)[C@@H](O[C@H]2C[C@@](C)(OC)[C@@H](O)[C@H](C)O2)[C@H](C)[C@@H](O[C@@H]2O[C@H](C)C[C@H](N(C)C)[C@H]2O)[C@](C)(O)C[C@@H](C)C(=O)[C@H](C)[C@@H](O)[C@]1(C)O [Erythromycin] | 33 | 35 | 30 | 29 | 32 | 35 | 34 | 34 | 29 | 27 | 41 | 37 | 30 | 35 | 28 | 34 | isolates resistant (Kirby-Bauer disc diffusion) ([4]; CA-MRSA (n = 10)): 100.00%; isolates resistant (Kirby-Bauer disc diffusion) ([4]; HA-MRSA (n = 10)): 80.00%; isolates resistant (Kirby-Bauer disc diffusion) ([4]; Methicillin-susceptible staphylococci (n = 10)): 40.00%; Total isolates resistant (Kirby-Bauer disc diffusion) [4]: 73.33%; Total isolates resistant (Kirby-Bauer disc diffusion) ([4]; listed as erythromycin): 73.33%; disk diffusion zone diameter (S. pneumoniae isolates [1]; WCH158): 34 mm; disk diffusion zone diameter (S. pneumoniae isolates [1]; WCH184): 10 mm; disk diffusion susceptibility category (S. pneumoniae isolates [1]; WCH184 (Table 19)): R; disk diffusion zone diameter (S. pneumoniae isolates [1]; WCH211): 33 mm; disk diffusion zone diameter (S. pneumoniae isolates [1]; WU2): 34 mm; Resistance status to Erythromycin (S. pneumoniae isolates [1]; isolate D39): Sensitive; MIC (S. pneumoniae isolates [5]): 0.00275 µg/mL (≈ 0.00375 µM); MBC (S. pneumoniae isolates [6]): 0.00275 µg/mL (≈ 0.00375 µM); FICI [3]: 0.75 and 0.562 and 0.5 and 0.531; Antibiotic MIC Alone [3]: 0.25 µg/mL; Result (interaction with NCL812) [3]: NE (No effect (NE) was defined as 0.5<FICI<4)
3 | >64 | >64 | >64 | >64 | C/C(=N\Nc1cc(N/N=C(\C)c2ccc(Cl)cc2)ncn1)c1ccc(Cl)cc1 [NCL 178] |  |  |  |  |  |  |  |  |  |  |  |  |  |  |  |  | 
4 | >64 | >64 | 4 (≈ 9.99 µM) | 8 (≈ 20 µM) | Nc1nc(N/N=C/c2ccc(Cl)cc2)cc(N/N=C/c2ccc(Cl)cc2)n1 [NCL 179] |  |  |  |  |  |  |  |  |  |  |  |  |  |  |  |  | 
5 | >64 | >64 | >64 | 64 (≈ 144 µM) | OC/C(=N\Nc1cc(N/N=C(\CO)c2ccc(Cl)cc2)ncn1)c1ccc(Cl)cc1 [NCL 180] |  |  |  |  |  |  |  |  |  |  |  |  |  |  |  |  | 
6 | >64 | >64 | >64 | >64 | Clc1ccc(/C=N/Nc2cc(N/N=C/c3ccc(Cl)cc3)ncn2)cc1 [NCL 181] |  |  |  |  |  |  |  |  |  |  |  |  |  |  |  |  | 
